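Where inhibition never reached the appropriate level, the endpoint shown equals the highest concentration tested. Otherwise, values were interpolated linearly from a five-concentration, 48-hour dose response in 96-well plates. GI50 = concentration required for 50% inhibition of growth.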 Activity calls are given as the source filed them. Cut-off read from the data, not from the text of the source: active = GI50 up to about 1.1 µM and inactive = higher.
Legend:
Assay in all cases: NCI-60 cell line screen, 48 h
[1] = tested on: HCC 2998
[2] = tested on: HOP-62
[3] = tested on: HOP-92
[4] = tested on: MOLT-4
[5] = tested on: EKVX
[6] = tested on: SNB-19
[7] = tested on: UO-31
[8] = tested on: TK-10
[9] = tested on: LXFL 529
[10] = tested on: OVCAR-8
[11] = tested on: SNB-75
[12] = tested on: NCI-H23
[13] = tested on: M14
[14] = tested on: UACC-257
[15] = tested on: NCI-H226
[16] = tested on: A549
[17] = tested on: KM12
[18] = tested on: DLD-1
[19] = tested on: SF-295
[20] = tested on: HL-60
[21] = tested on: SR
[22] = tested on: LOX IMVI
[23] = tested on: ACHN
[24] = tested on: SK-MEL-2
[25] = tested on: SW-620
[26] = tested on: SN12C
[27] = tested on: OVCAR-4
[28] = tested on: CAKI-1
[29] = tested on: SF-539
[30] = tested on: IGROV-1
[31] = tested on: SF-268
[32] = tested on: RPMI-8226
[33] = tested on: U-251
[34] = tested on: Malme-3M
[35] = tested on: COLO 205
[36] = tested on: OVCAR-3
[37] = tested on: M19-MEL
[38] = tested on: DMS-114
[39] = tested on: SK-OV-3
[40] = tested on: RXF 631
[41] = tested on: NCI-H460
[42] = tested on: OVCAR-5
[43] = tested on: DMS-273
[44] = tested on: KM-20L2
[45] = tested on: NCI-H522
[46] = tested on: RXF 393
[47] = tested on: XF498
[48] = tested on: SK-MEL-28
[49] = tested on: HCT-15
[50] = tested on: 786-0
[51] = tested on: K562
[52] = tested on: HCT-116
[53] = tested on: CCRF-CEM
[54] = tested on: HT-29
[55] = tested on: UACC-62
[56] = tested on: SK-MEL-5
[57] = tested on: SNB-78
[58] = tested on: A498
[59] = tested on: HOP-18

NC1N=Nc2ccccc21 (centres undefined)
GI50 [1]: > 100 µM (inactive)
GI50 [2]: > 100 µM (inactive)
GI50 [3]: > 100 µM (inactive)
GI50 [4]: > 100 µM (inactive)
GI50 [5]: > 100 µM (inactive)
GI50 [6]: > 100 µM (inactive)
GI50 [7]: > 100 µM (inactive)
GI50 [8]: > 100 µM (inactive)
GI50 [9]: > 100 µM (inactive)
GI50 [10]: > 100 µM (inactive)
GI50 [11]: > 100 µM (inactive)
GI50 [12]: > 100 µM (inactive)
GI50 [13]: > 100 µM (inactive)
GI50 [14]: > 100 µM (inactive)
GI50 [15]: > 100 µM (inactive)
GI50 [16]: > 100 µM (inactive)
GI50 [17]: > 100 µM (inactive)
GI50 [18]: > 100 µM (inactive)
GI50 [19]: > 100 µM (inactive)
GI50 [20]: > 100 µM (inactive)
GI50 [21]: > 100 µM (inactive)
GI50 [22]: > 100 µM (inactive)
GI50 [23]: > 100 µM (inactive)
GI50 [24]: > 100 µM (inactive)
GI50 [25]: > 100 µM (inactive)
GI50 [26]: > 100 µM (inactive)
GI50 [27]: > 100 µM (inactive)
GI50 [28]: > 100 µM (inactive)
GI50 [29]: > 100 µM (inactive)
GI50 [30]: > 100 µM (inactive)
GI50 [31]: > 100 µM (inactive)
GI50 [32]: > 100 µM (inactive)
GI50 [33]: > 100 µM (inactive)
GI50 [34]: > 100 µM (inactive)
GI50 [35]: > 100 µM (inactive)
GI50 [36]: > 100 µM (inactive)
GI50 [37]: > 100 µM (inactive)
GI50 [38]: > 100 µM (inactive)
GI50 [39]: > 100 µM (inactive)
GI50 [40]: > 100 µM (inactive)
GI50 [41]: > 100 µM (inactive)
GI50 [42]: > 100 µM (inactive)
GI50 [43]: > 100 µM (inactive)
GI50 [44]: > 100 µM (inactive)
GI50 [45]: > 100 µM (inactive)
GI50 [46]: > 100 µM (inactive)
GI50 [47]: > 100 µM (inactive)
GI50 [48]: > 100 µM (inactive)
GI50 [49]: > 100 µM
GI50 [50]: > 100 µM (inactive)
GI50 [51]: > 100 µM (inactive)
GI50 [52]: > 100 µM (inactive)
GI50 [53]: > 100 µM (inactive)
GI50 [54]: > 100 µM (inactive)

CC(=O)OC1COC(N2C(=O)C(=O)c3c(C)cc(Cl)nc32)C(OC(C)=O)C1OC(C)=O (centres undefined)
GI50 [2]: > 100 µM (inactive)
GI50 [3]: > 100 µM (inactive)
GI50 [4]: > 100 µM (inactive)
GI50 [5]: > 100 µM (inactive)
GI50 [55]: > 100 µM (inactive)
GI50 [6]: > 100 µM (inactive)
GI50 [7]: > 100 µM (inactive)
GI50 [8]: > 100 µM (inactive)
GI50 [9]: > 100 µM (inactive)
GI50 [10]: > 100 µM (inactive)
GI50 [11]: > 100 µM (inactive)
GI50 [56]: > 100 µM (inactive)
GI50 [12]: > 100 µM (inactive)
GI50 [13]: > 100 µM (inactive)
GI50 [14]: > 100 µM (inactive)
GI50 [57]: > 100 µM (inactive)
GI50 [15]: > 100 µM (inactive)
GI50 [16]: > 100 µM (inactive)
GI50 [17]: > 100 µM (inactive)
GI50 [18]: > 100 µM (inactive)
GI50 [19]: > 100 µM (inactive)
GI50 [20]: > 100 µM (inactive)
GI50 [21]: 83.6 µM (inactive)
GI50 [22]: > 100 µM (inactive)
GI50 [23]: > 100 µM (inactive)
GI50 [24]: > 100 µM (inactive)
GI50 [25]: > 100 µM (inactive)
GI50 [26]: > 100 µM (inactive)
GI50 [27]: > 100 µM (inactive)
GI50 [28]: > 100 µM (inactive)
GI50 [29]: > 100 µM (inactive)
GI50 [30]: > 100 µM (inactive)
GI50 [31]: > 100 µM (inactive)
GI50 [32]: > 100 µM (inactive)
GI50 [33]: > 100 µM (inactive)
GI50 [34]: > 100 µM (inactive)
GI50 [35]: > 100 µM (inactive)
GI50 [36]: > 100 µM (inactive)
GI50 [37]: > 100 µM (inactive)
GI50 [58]: > 100 µM (inactive)
GI50 [38]: > 100 µM (inactive)
GI50 [41]: > 100 µM (inactive)
GI50 [42]: > 100 µM (inactive)
GI50 [43]: > 100 µM (inactive)
GI50 [44]: > 100 µM (inactive)
GI50 [46]: > 100 µM (inactive)
GI50 [47]: > 100 µM (inactive)
GI50 [48]: > 100 µM (inactive)
GI50 [49]: > 100 µM
GI50 [59]: > 100 µM (inactive)
GI50 [50]: > 100 µM (inactive)
GI50 [51]: > 100 µM (inactive)
GI50 [52]: > 100 µM (inactive)
GI50 [53]: > 100 µM (inactive)
GI50 [54]: > 100 µM (inactive)
